In patent US7662832B2, “Pyrrolo[2,3-c]pyridine derivatives and processes for the preparation thereof” (priority 2004, dated 2010):
pIC50: −log10 of the molar value. Where a name gives a salt, the structure may show the parent alone.

molecular target: Proton Pump (H^+/K^+-ATPase) (Sus scrofa, UniProt P19156); assay: Inhibitory effects on proton pump (H^+/K^+-ATPase) activity; type: biochemical; conditions: hog gastric vesicles; K^+ stimulated H^+/K^+-ATPase activity; 30 minutes at 37° C.
Sequence (P19156 2-1034 limits assumed): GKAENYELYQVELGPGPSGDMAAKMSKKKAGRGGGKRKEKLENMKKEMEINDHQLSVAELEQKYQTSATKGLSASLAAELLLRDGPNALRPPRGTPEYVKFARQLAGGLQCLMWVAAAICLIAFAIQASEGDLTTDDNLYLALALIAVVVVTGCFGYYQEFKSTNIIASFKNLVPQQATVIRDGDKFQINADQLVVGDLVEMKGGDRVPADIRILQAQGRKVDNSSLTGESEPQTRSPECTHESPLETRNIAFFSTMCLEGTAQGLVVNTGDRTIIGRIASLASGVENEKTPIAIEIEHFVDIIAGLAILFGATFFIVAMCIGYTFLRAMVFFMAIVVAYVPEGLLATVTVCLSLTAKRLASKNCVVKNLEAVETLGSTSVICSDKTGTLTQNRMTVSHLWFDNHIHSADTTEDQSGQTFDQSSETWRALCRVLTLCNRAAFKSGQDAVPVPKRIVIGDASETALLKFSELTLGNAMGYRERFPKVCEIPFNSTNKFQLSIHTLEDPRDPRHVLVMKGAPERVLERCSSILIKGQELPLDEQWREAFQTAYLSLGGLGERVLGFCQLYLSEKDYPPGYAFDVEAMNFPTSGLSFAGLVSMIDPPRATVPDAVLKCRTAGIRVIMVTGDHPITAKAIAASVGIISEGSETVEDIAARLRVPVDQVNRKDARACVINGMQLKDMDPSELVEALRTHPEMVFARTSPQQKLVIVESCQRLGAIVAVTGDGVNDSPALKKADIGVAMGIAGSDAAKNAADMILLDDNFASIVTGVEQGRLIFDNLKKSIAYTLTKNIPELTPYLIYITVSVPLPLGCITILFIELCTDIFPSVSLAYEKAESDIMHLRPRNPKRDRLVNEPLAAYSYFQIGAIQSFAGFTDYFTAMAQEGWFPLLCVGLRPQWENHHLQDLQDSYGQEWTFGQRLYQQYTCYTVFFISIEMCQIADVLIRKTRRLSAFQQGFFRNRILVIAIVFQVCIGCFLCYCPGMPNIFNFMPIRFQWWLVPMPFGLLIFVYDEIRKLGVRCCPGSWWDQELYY
Sequence (P18434 whole entry partner): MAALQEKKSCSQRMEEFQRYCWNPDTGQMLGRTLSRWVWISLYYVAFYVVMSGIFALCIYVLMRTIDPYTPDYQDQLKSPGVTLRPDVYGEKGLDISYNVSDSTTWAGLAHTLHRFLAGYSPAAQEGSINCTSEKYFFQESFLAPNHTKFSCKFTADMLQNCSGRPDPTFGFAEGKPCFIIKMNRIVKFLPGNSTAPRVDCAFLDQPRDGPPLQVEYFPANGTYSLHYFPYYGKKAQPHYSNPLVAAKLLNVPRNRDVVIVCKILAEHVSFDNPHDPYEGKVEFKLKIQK

Q: How did the pIC50 turn out when `C=CCn1c(C)c(C)c2cc(C(=O)NC3CC3)nc(N3CCc4ccccc4C3)c21` [Example 761, 1-allyl-7-(3,4-dihydro-1H-isoquinolin-2-yl)-2,3-dimethyl-N-cyclopropyl-1H-pyrrolo[2,3-c]pyridin-5-carboxamide] was run?
A: Its pIC50 is 6.90.

Q: `C=CCn1c(C)c(C)c2cc(C(=O)NCC(F)(F)F)nc(N3CCc4ccccc4C3)c21` [Example 762, 1-allyl-7-(3,4-dihydro-1H-isoquinolin-2-yl)-2,3-dimethyl-N-(2,2,2-trifluoroethyl)-1H-pyrrolo[2,3-c]pyridin-5-carboxamide] was tested. Which pIC50 did it give?
A: Its pIC50 is 6.46.

Q: With `Cc1c(C)n(Cc2ccccc2)c2c(N3CCc4ccccc4C3)nc(C(=O)N3CCOCC3)cc12` [Example 764, [1-benzyl-7-(3,4-dihydro-1H-isoquinolin-2-yl)-2,3-dimethyl-1H-pyrrolo[2,3-c]pyridin-5-yl]-(morpholin-4-yl)-methanone] as the compound, how does the pIC50 read?
A: Its pIC50 is 7.36.

Q: `CCNC(=O)c1cc2c(C)c(C)n(Cc3ccccc3)c2c(N2CCc3ccccc3C2)n1` [Example 765, 1-benzyl-7-(3,4-dihydro-1H-isoquinolin-2-yl)-2,3-dimethyl-N-ethyl-1H-pyrrolo[2,3-c]pyridin-5-carboxamide] was tested. Which pIC50 did it give?
A: The pIC50 was 6.45.

Q: `Cc1c(C)n(Cc2ccccc2)c2c(N3CCc4ccccc4C3)nc(C(=O)N3CCOCC3)cc12` [Example 769, [1-benzyl-7-(3,4-dihydro-1H-isoquinolin-2-yl)-2,3-dimethyl-1H-pyrrolo[2,3-c]pyridin-5-yl]-(morpholin-4-yl)-methanone hydrochloride] was tested. Which pIC50 did it give?
A: Its pIC50 is 6.99.

Q: With `Cc1c(C)n(Cc2ccccc2)c2c(N3CCc4ccccc4C3)nc(C(=O)N(C)C)cc12` [Example 771, 1-benzyl-7-(3,4-dihydro-1H-isoquinolin-2-yl)-2,3-dimethyl-N-dimethyl-1H-pyrrolo[2,3-c]pyridin-5-carboxamide hydrochloride] as the compound, how does the pIC50 read?
A: The pIC50 was 7.44.

Q: With `CNC(=O)c1cc2c(C)c(C)n(Cc3ccccc3)c2c(N2CCc3ccccc3C2)n1` [Example 772, 1-benzyl-7-(3,4-dihydro-1H-isoquinolin-2-yl)-2,3-dimethyl-N-methyl-1H-pyrrolo[2,3-c]pyridin-5-carboxamide hydrochloride] as the compound, how does the pIC50 read?
A: Its pIC50 is 6.26.

Q: How did the pIC50 turn out when `Cc1[nH]c2c(N3CCc4ccccc4C3)nc(C(=O)N3CCOCC3)cc2c1C` [Example 776, [7-(3,4-dihydro-1H-isoquinolin-2-yl)-2,3-dimethyl-1H-pyrrolo[2,3-c]pyridin-5-yl]-(morpholin-4-yl)-methanone] was run?
A: Its pIC50 is 7.07.

Q: With `C=CCn1c(C)c(C)c2cc(C(=O)N3CCOCC3)nc(N3CCc4ccccc4C3)c21` [Example 777, [1-allyl-7-(3,4-dihydro-1H-isoquinolin-2-yl)-2,3-dimethyl-1H-pyrrolo[2,3-c]pyridin-5-yl]-(morpholin-4-yl)-methanone hydrochloride] as the compound, how does the pIC50 read?
A: The pIC50 was 8.80.

Q: How did the pIC50 turn out when `Cc1c(C)n(CC2CC2)c2c(N3CCc4ccccc4C3)nc(C(=O)N3CCOCC3)cc12` [Example 778, [1-cyclopropylmethyl-7-(3,4-dihydro-1H-isoquinolin-2-yl)-2,3-dimethyl-1H-pyrrolo[2,3-c]pyridin-5-yl]-(morpholin-4-yl)-methanone hydrochloride] was run?
A: Its pIC50 is 7.41.

Q: With `Cc1c(C)n(Cc2cccc(F)c2)c2c(N3CCc4ccccc4C3)nc(C(=O)N3CCOCC3)cc12` [Example 779, [7-(3,4-dihydro-1H-isoquinolin-2-yl)-1-(3-fluorobenzyl)-2,3-dimethyl-1H-pyrrolo[2,3-c]pyridin-5-yl]-(morpholin-4-yl)-methanone hydrochloride] as the compound, how does the pIC50 read?
A: The pIC50 was 7.21.

Q: With `COc1cccc(Cn2c(C)c(C)c3cc(C(=O)N4CCOCC4)nc(N4CCc5ccccc5C4)c32)c1` [Example 780, [7-(3,4-dihydro-1H-isoquinolin-2-yl)-1-(3-methoxybenzyl)-2,3-dimethyl-1H-pyrrolo[2,3-c]pyridin-5-yl]-(morpholin-4-yl)-methanone hydrochloride] as the compound, how does the pIC50 read?
A: Its pIC50 is 6.90.

Q: With `CCCn1c(C)c(C)c2cc(C(=O)N3CCOCC3)nc(N3CCc4ccccc4C3)c21` [Example 781, [7-(3,4-dihydro-1H-isoquinolin-2-yl)-2,3-dimethyl-1-propyl-1H-pyrrolo[2,3-c]pyridin-5-yl]-(morpholin-4-yl)-methanone hydrochloride] as the compound, how does the pIC50 read?
A: The pIC50 was 7.41.

Q: `CCn1c(C)c(C)c2cc(C(=O)N3CCN(C)CC3)nc(N3CCc4ccccc4C3)c21` [Example 782, [7-(3,4-dihydro-1H-isoquinolin-2-yl)-1-ethyl-2,3-dimethyl-1H-pyrrolo[2,3-c]pyridin-5-yl]-(4-methylpiperazin-1-yl)-methanone hydrochloride] was tested. Which pIC50 did it give?
A: Its pIC50 is 9.00.

Q: With `COc1cccc(Cn2c(C)c(C)c3cc(C(=O)N4CCN(C)CC4)nc(N4CCc5ccccc5C4)c32)c1` [Example 783, [7-(3,4-dihydro-1H-isoquinolin-2-yl)-1-(3-methoxybenzyl)-2,3-dimethyl-1H-pyrrolo[2,3-c]pyridin-5-yl]-(4-methylpiperazin-1-yl)-methanone hydrochloride] as the compound, how does the pIC50 read?
A: The pIC50 was 8.52.

Q: With `COc1cccc(Cn2c(C)c(C)c3cc(C(=O)N4CCSCC4)nc(N4CCc5ccccc5C4)c32)c1` [Example 784, [7-(3,4-dihydro-1H-isoquinolin-2-yl)-1-(3-methoxybenzyl)-2,3-dimethyl-1H-pyrrolo[2,3-c]pyridin-5-yl]-(thiomorpholin-1-yl)-methanone hydrochloride] as the compound, how does the pIC50 read?
A: Its pIC50 is 6.69.

Q: With `C=CCn1c(C)c(C)c2cc(C(=O)N3CCN(C)CC3)nc(N3CCc4ccccc4C3)c21` [Example 785, [1-allyl-7-(3,4-dihydro-1H-isoquinolin-2-yl)-2,3-dimethyl-1H-pyrrolo[2,3-c]pyridin-5-yl]-(4-methylpiperazin-1-yl)-methanone hydrochloride] as the compound, how does the pIC50 read?
A: Its pIC50 is 9.15.

Q: With `C=CCn1c(C)c(C)c2cc(C(=O)N3CCCCC3)nc(N3CCc4ccccc4C3)c21` [Example 786, [1-allyl-7-(3,4-dihydro-1H-isoquinolin-2-yl)-2,3-dimethyl-1H-pyrrolo[2,3-c]pyridin-5-yl]-(piperidin-1-yl)-methanone hydrochloride] as the compound, how does the pIC50 read?
A: The pIC50 was 7.82.

Q: `CCn1c(C)c(C)c2cc(C(=O)N3CCCCC3)nc(N3CCc4ccccc4C3)c21` [Example 787, [7-(3,4-dihydro-1H-isoquinolin-2-yl)-1-ethyl-2,3-dimethyl-1H-pyrrolo[2,3-c]pyridin-5-yl]-(piperidin-1-yl)-methanone hydrochloride] was tested. Which pIC50 did it give?
A: Its pIC50 is 8.96.

Q: `Cc1c(C)n(Cc2ccccc2)c2c(N3CCc4ccccc4C3)nc(C(=O)N3CCCCC3)cc12` [Example 788, [1-benzyl-7-(3,4-dihydro-1H-isoquinolin-2-yl)-2,3-dimethyl-1H-pyrrolo[2,3-c]pyridin-5-yl]-(piperidin-1-yl)-methanone hydrochloride] was tested. Which pIC50 did it give?
A: Its pIC50 is 7.28.

Q: `Cc1c(C)n(Cc2ccccc2)c2c(N3CCc4ccccc4C3)nc(C(=O)N3CCSCC3)cc12` [Example 789, [1-benzyl-7-(3,4-dihydro-1H-isoquinolin-2-yl)-2,3-dimethyl-1H-pyrrolo[2,3-c]pyridin-5-yl]-(thiomorpholin-1-yl)-methanone hydrochloride] was tested. Which pIC50 did it give?
A: Its pIC50 is 7.19.

Q: With `Cc1c(C)n(Cc2cccc(Cl)c2)c2c(N3CCc4ccccc4C3)nc(C(=O)N3CCSCC3)cc12` [Example 790, [1-(3-chlorobenzyl)-7-(3,4-dihydro-1H-isoquinolin-2-yl)-2,3-dimethyl-1H-pyrrolo[2,3-c]pyridin-5-yl]-(thiomorpholin-1-yl)-methanone hydrochloride] as the compound, how does the pIC50 read?
A: Its pIC50 is 6.89.

Q: `Cc1[nH]c2c(N3CCc4ccccc4C3)nc(C(=O)N3CCCCC3)cc2c1C` [Example 791, [7-(3,4-dihydro-1H-isoquinolin-2-yl)-2,3-dimethyl-1H-pyrrolo[2,3-c]pyridin-5-yl]-(piperidin-1-yl)-methanone hydrochloride] was tested. Which pIC50 did it give?
A: Its pIC50 is 6.91.

Q: With `COCCn1c(C)c(C)c2cc(C(=O)N3CCCCC3)nc(N3CCc4ccccc4C3)c21` [Example 792, [7-(3,4-dihydro-1H-isoquinolin-2-yl)-1-(2-methoxyethyl)-2,3-dimethyl-1H-pyrrolo[2,3-c]pyridin-5-yl]-(piperidin-1-yl)-methanone hydrochloride] as the compound, how does the pIC50 read?
A: The pIC50 was 7.23.

Q: With `Cc1c(C)n(CC2CC2)c2c(N3CCc4ccccc4C3)nc(C(=O)N3CCCCC3)cc12` [Example 793, [1-cyclopropylmethyl-7-(3,4-dihydro-1H-isoquinolin-2-yl)-2,3-dimethyl-1H-pyrrolo[2,3-c]pyridin-5-yl]-(piperidin-1-yl)-methanone hydrochloride] as the compound, how does the pIC50 read?
A: The pIC50 was 6.93.

Q: `Cc1c(C)n(Cc2cccc(F)c2)c2c(N3CCc4ccccc4C3)nc(C(=O)N3CCCCC3)cc12` [Example 796, [7-(3,4-dihydro-1H-isoquinolin-2-yl)-1-(3-fluorobenzyl)-2,3-dimethyl-1H-pyrrolo[2,3-c]pyridin-5-yl]-(piperidin-1-yl)-methanone hydrochloride] was tested. Which pIC50 did it give?
A: The pIC50 was 6.52.

Q: `Cc1c(C)n(Cc2ccc(F)cc2)c2c(N3CCc4ccccc4C3)nc(C(=O)N3CCCCC3)cc12` [Example 797, [7-(3,4-dihydro-1H-isoquinolin-2-yl)-1-(4-fluorobenzyl)-2,3-dimethyl-1H-pyrrolo[2,3-c]pyridin-5-yl]-(piperidin-1-yl)-methanone hydrochloride] was tested. Which pIC50 did it give?
A: The pIC50 was 6.54.

Q: `Cc1cccc(Cn2c(C)c(C)c3cc(C(=O)N4CCCCC4)nc(N4CCc5ccccc5C4)c32)c1` [Example 798, [7-(3,4-dihydro-1H-isoquinolin-2-yl)-2,3-dimethyl-1-(3-methylbenzyl)-1H-pyrrolo[2,3-c]pyridin-5-yl]-(piperidin-1-yl)-methanone hydrochloride] was tested. Which pIC50 did it give?
A: The pIC50 was 6.66.

Q: With `Cc1c(C)n(Cc2cccc(Cl)c2)c2c(N3CCc4ccccc4C3)nc(C(=O)N3CCCCC3)cc12` [Example 799, [1-(3-chlorobenzyl)-7-(3,4-dihydro-1H-isoquinolin-2-yl)-2,3-dimethyl-1H-pyrrolo[2,3-c]pyridin-5-yl]-(piperidin-1-yl)-methanone hydrochloride] as the compound, how does the pIC50 read?
A: The pIC50 was 6.79.

Q: `COCn1c(C)c(C)c2cc(C(=O)N3CCCCC3)nc(N3CCc4ccccc4C3)c21` [Example 800, [7-(3,4-dihydro-1H-isoquinolin-2-yl)-1-methoxymethyl-2,3-dimethyl-1H-pyrrolo[2,3-c]pyridin-5-yl]-(piperidin-1-yl)-methanone hydrochloride] was tested. Which pIC50 did it give?
A: Its pIC50 is 7.04.
